The record followed here is patent US20100203634A1, “Inhibition of stem cell differentiation, enhancement of proliferation and selective induction of apoptosis by Wnt factors” (DeltaCell B.V., priority 2003, published 2010).

Assay [1] has as its system mesenchyme and epithelium of fetal lung explants. The assay is described as follows: Apoptosis in lung explants by H/E histology (picnotic nuclei). Type of assay: cell-based, mouse. How it is done: The (fetal) murine lung explant culture was generated according to our standard protocol. Briefly, complete lungs or individually dissected lung lobes were isolated from fetal mice and cultured for one to five days in a hanging drop culture system. The Wnt3a polypeptide was administered to the culture medium in different concentrations, ranging from 0 to 4000 ng/ml. The effect of this treatment was monitored by stereomicroscopy. The lung explant cultures were subsequently fixed for 30 minutes in 10% paraformaldehyde (PFA), 30 minutes in 2% PFA and 30 minutes in 4% PFA. After fixation, the lung explants were dehydrated through an increasing series of 2-isopropanol and subsequently embedded in paraffin. For the histological analysis, 4 μm thick sections were cut and stained with Hematoxilin and Eosin using standard techniques.
In order to determine the concentration range in which the Wnt3a polypeptide is effective, total lung explants were cultured in the presence of Wnt3a in a range of 0 ng/ml, 500 ng/ml, 750 ng/ml, 1000 ng/ml, 2000 ng/ml and 4000 ng/ml (FIG. 2, Panels A-R).
After two days of culture, these lung explants were fixed and embedded in paraffin for immunohistological analysis.
To more exactly determine the concentration of Wnt3a that is effective upon lung development, differentiation and apoptosis, fetal lung explants were cultured for a longer period (four days) in the presence of lower concentrations of Wnt3a, i.e., 0 ng/ml, 4 ng/ml, 20 ng/ml, 100 ng/ml and 500 ng/ml (FIG. 4, Panels A-O).

For assay [2] the test system is unchanged. Nature of the assay: TUNEL assay on sections of fetal lung explants. In kind it is cell-based, mouse. The protocol: The induction of apoptosis was detected using the “In Situ Cell Death Detection Kit,” of Roche (Cat. No. 11 684 817 001) according to the manufacturer's instructions.
(§1) To further analyze the effect of Wnt3a upon apoptosis and proliferation, lung explants were cultured for four days in the presence of 0, 4, 20, 100, 250, 500, 750 and 1000 ng/ml. In order to identify whether after Wnt3A treatment cells are viable and active, proliferating BrdU was added to the culture medium, which is incorporated in newly synthesized DNA of active proliferating cells, two hours before the fixation of the lung explants. […] To better investigate this effect, histological sections were analyzed with the TUNEL assay, which detects fragmented DNA present in apoptotic cells (material and methods).

Assay [3] has the same test system. The assay is described as follows: BrdU incorporation immunostaining on lung explants. Type of assay: cell-based, mouse. Particulars: four days. How it is done: (§2) The primary antibodies used for the immunohistochemical detection was for beta-catenin; anti beta-catenin IgG, mAb, clone 14 from BD-Transduction Laboratories, for tubulin-beta mAb clone TBN05 (Tub2.1) from Neomarkers, for BrdU; anti-Bromodeoxyuridine (BrdU), mAb clone ZBU30 from Zymed Laboratories Inc.
as §1
In order to identify whether the epithelial cells were still actively proliferating after four days of Wnt3a treatment, the histological sections were immunostained for incorporated BrdU (FIG. 6).
Background: Dividing cells build labelled thymidine or BrdU into new DNA.

Assay [4] concerns beta-catenin. Nature of the assay: Nuclear translocation of beta-catenin, immunohistology of fetal lung explants. In kind it is cell-based, mouse. How it is done:
FIG. 8: Nuclear translocation of beta-catenin by Wnt3A in fetal lung explants. The translocation of beta-catenin was determined using immunohistological analysis of histological sections from fetal lung explants (E12.5), cultured for two days in the presence of Wnt3a at a concentration of 0 ng/ml (Panel A); 10 ng/ml (Panel B); 50 ng/ml (Panel C); 250 ng/ml (Panel D); 500 ng/ml (Panel E) and 1000 ng/ml (Panel F).
as §2
In order to determine whether Wnt3A actually elevates the Wnt-signaling pathway in these explants, histological sections were stained for beta-catenin, the intracellular factor, which, together with members of the high mobility group (HMG) of transcription factors such as TCF1 and LEF, transducer the Wnt signal to the nucleus.

The subject of assay [5] is Wnt-signaling pathway in primary lung fibroblasts isolated from a E12.5 fetal lung. The assay is described as follows: TopFlash/FopFlash reporter assay, primary fetal lung cells. Type of assay: cell-based, mouse. Particulars: 0.4 to 500 ng/ml, 20 hours. How it is done: (§3) Primary mouse fibroblasts isolated from E12.5 lung explants, the human epithelial lung carcinoma cell line A549 cells (ATCC CCL-185), the human epithelial lung adenocarcinoma cell line Calu-3 (ATCC_HTB-55) and the normal human fetal lung fibroblast cell line HFL-1 cells (ATCC—153) were cultured in 96-well plates and transfected with the TopFlash and FopFlash reporter constructs using lipofectamine 2000 according to the manufacturer's instructions. As an internal control for transfection efficiency, a constitutive renilla luciferase reporter (Promega) was cotransfected. The cells were transfected with the above-mentioned reporter constructs and simultaneously treated with different concentrations of Wnt3A for 20 hours, after which the cells were lysed and luciferase expression was measured using a Berthold luminometer for two seconds (V. Korinek et al., Mol. Cell. Biol. 18:1248-1256, 1998). The Lipofectamine 2000 transfection reagent was purchased from Invitrogen Life Technologies. The wild-type beta-catenin/TCF reporter plasmid (TOPFLASH) and mutated reporter plasmid (FOPFLASH) were obtained from Upstate Biotechnology (NY, USA).
The dissociated lungs were co-transfected with the TopFlash reporter construct that is activated by nuclear beta-catenin transcription complexes. […]
A general note: In a reporter assay the amount or activity of a reporter protein is the signal.

Assay [6] deals with Wnt-signaling pathway in normal human fetal lung fibroblast cell line HFL-1. Nature of the assay: TopFlash/FopFlash reporter assay, HFL-1. Conditions: HFL-1, 20 hours. Type of assay: cell-based. The protocol: as §3, with “The Lipofectamine 2000 transfection reagent was purchased from Invitrogen Life Technologies. The wild-type beta-catenin/TCF reporter plasmid (TOPFLASH) and mutated reporter plasmid (FOPFLASH) were obtained from Upstate Biotechnology (NY, USA).” left out
(§4) In order to analyze if Wnt3A is able to activate the Wnt signal-transduction pathway in humans, we stimulated three different cell lines from human origin with Wnt3A and measured the response with the TopFlash/FopFlash reporter assay. The three human lung-derived cell lines analyzed were the lung epithelial carcinoma cell line A549 (FIG. 9B), the normal lung fibroblast line HFL-1 (FIG. 9C), and the epithelial adenocarcinoma cell line calu-3 (FIG. 9D).

Assay [7] relates to Wnt-signaling pathway in human epithelial lung adenocarcinoma cell line Calu-3. The assay is described as follows: TopFlash/FopFlash reporter assay, Calu-3. Type of assay: cell-based. Conditions: calu-3, 20 hours. How it is done: as §3, with “The Lipofectamine 2000 transfection reagent was purchased from Invitrogen Life Technologies. The wild-type beta-catenin/TCF reporter plasmid (TOPFLASH) and mutated reporter plasmid (FOPFLASH) were obtained from Upstate Biotechnology (NY, USA).” left out
as §4

Entries after “also recorded” stand apart in the source; their conditions may differ.

As for Wnt3a, the “apoptosis in the epithelium” value is on record as “no sign of apoptosis whatsoever” in assay [1] (750 ng/ml, two days); “contained no apoptotic cells” in assay [1] (1000 ng/ml, five days); “not detectable” in assay [1] (1000 ng/ml, two days); “no sign of apoptosis could be detected” in assay [1] (between 100 and 500 ng/ml, four days). Also, the “apoptosis in the mesenchyme” value in assay [1] (750 ng/ml, two days) is reported as “clearly detectable but not yet abundant”; in assay [1] (1000 ng/ml, five days) it was “most of the mesenchymal cells surrounding the epithelium displayed picnotic nuclei; also recorded: massive induction of apoptosis in the mesenchyme”. Besides, the “concentration at which apoptosis in the epithelium is induced” value in assay [1] (conclusion) is recorded as “higher than 1000 ng/ml”. In addition, the “concentration at which apoptosis in the mesenchyme is induced” value in assay [1] (conclusion) is recorded as “greater than 100 ng/ml”. Moreover, the TUNEL-positive epithelial cells entry was “almost none of the epithelial cells were TUNEL positive” in assay [2] (1000 ng/ml, four days) and “unaffected epithelium” in assay [2] (1000 ng/ml, four days, listed as Wnt3A). Besides, the “apoptosis in the mesenchyme (TUNEL)” value in assay [2] (1000 ng/ml, four days) is reported as “massive induction of apoptosis in the mesenchyme”. Besides, the “mesenchymal cells picnotic and TUNEL positive” value in assay [2] (1000 ng/ml, four days) is approximately 100%. Moreover, in assay [2] (four days of culture), the “concentration at which TUNEL-positive (apoptotic) cells increase” value was “above 100 ng/ml”. Besides, the “BrdU-positive (active proliferating) cells” value in assay [3] (500 ng/ml and lower) was “both the mesenchyme and epithelium contained many BrdU-positive”; in assay [3] (750 ng/ml), “intermediate effect”; in assay [3] (1000 ng/ml), “almost all BrdU-positive cells were present in the epithelium”. Further, the nuclear beta-catenin result in assay [4] (10-1000 ng/ml, within the first two days, mesenchymal cells around lung buds) was “dosage-dependent increase in nuclear beta-catenin”; in assay [4] (250 and 500 ng/ml, two days), “maximal; also recorded: strong induction of nuclear beta-catenin”; in assay [4] (four- and eight-day cultures), “had disappeared”. For the same substance, the “TopFlash versus FopFlash reporter response” value in assay [5] was “clear Wnt3A dosage-dependent response”. The TopFlash/FopFlash reporter response entry in assay [6] and in assay [7] was “respond to Wnt3A in a dosage-dependent manner; also recorded: strong induction of the Wnt-signaling pathway” in each case.
